Laboratory results from patent publication US9096833B2, “Methods of treating pre-malignant ductal cancer with autophagy inhibitors” (GEORGE MASON UNIVERSITY, priority 2009, dated 2015).

Assays:
[1] = test system: DCIS malignant precursor cells
Description: Tissue collection. […] Gross tissue pathology at the time of procurement was assessed by a board certified pathologist. Tissue containing DCIS lesions was excised for further macrodissection and rinsed in sterile phosphate buffered saline to remove sentinel lymph node dye. Using sterile technique, ductal tissue was dissected from surrounding breast adipose/fibrous tissue. The ductal tissue was rinsed in serum free DMEM/F12 medium (Invitrogen, Carlsbad, Calif., USA) supplemented with human recombinant EGF (10 ng/mL; Cell Signaling Technology, Danvers, Mass., USA or Millipore, Billerica, Mass., USA), insulin (10 μg/mL; Roche, Indianapolis, Ind., USA), streptomycin sulfate (100 μg/mL; Sigma, St. Louis, Mo., USA) and gentamicin sulfate (20 μg/mL; Sigma) prior to distribution in culture flasks (MidSci, St. Louis, Mo., USA). Ductal tissue was allowed to attach to the culture surface and observed daily for cellular outgrowths. Non-adherent organoids were removed from the culture flask.
Organoid ex vivo culture. Dissected breast ductal tissue was grown in 115 cm^2 TPP reclosable flasks (MidSci) or 10 cm^2 culture tubes (MidSci) in serum free DMEM/F12 medium supplemented with human recombinant EGF (10 ng/mL), insulin (10 μg/mL), streptomycin sulfate (100 μg/mL) and gentamicin sulfate (20 μg/mL), with or without 0.36% (v/v) murine Engelbreth-Holm-Swarm (EHS) derived, growth factor reduced, basement membrane extract (Trevigen, Gaithersburg, Md., USA) at 37° C. in a humidified 5.0% CO2 atmosphere. Medium was replaced three times per week. Cultures were maintained continuously for up to one year. Periodically, organoids were removed, under microscopic visualization, for propagation into new culture flasks or phenotypic and molecular analysis.
(§1) Pharmacological inhibition of autophagy. […] CO-containing medium was replaced three times per week for a period of 6 months.
(§2) Statistics. The Student T-test, two tailed with Welch's correction, was used to calculate the p-value, and to determine the statistical difference of epithelial outgrowth area before and after CQ treatment. P values <0.05 were considered significant. Standard deviation (SO) or standard error of the mean (SEM) was calculated for group comparisons. Wilcoxon rank sum was used to determine the differences between CQ treated and untreated groups for the reverse phase protein arrays. A p=0.1 was considered different for small sample sizes.

[2] = test system: autophagy associated pathways; assay: Cell signaling pathway mapping by reverse phase protein microarray (RPMA) of DCIS spheroids pre and post chloroquine; assay type: cell-based, human; details: for autophagy associated signal pathway proteins/endpoints (Atg5, AKT, ERK, mTOR, IRS-1, p38 etc.) by RPMA: chloroquine phosphate 50 μM for 4 days, spheroids pre vs post treatment, n=3
Description: as §1, §2

[3] = test system: DCIS organoid culture spheroids; assay: Autophagosome lysosome imaging with LysoTracker Red in DCIS organoid culture; assay type: cell-based, human; details: chloroquine phosphate (50 μM) for 2 weeks
[4] = test system: DCIS organoid cell cultures; assay: H&E histomorphology of chloroquine treated DCIS organoid cell cultures; assay type: cell-based, human; details: chloroquine phosphate (50 μM)
Description: as §1
Immunohistochemistry. Formalin fixed murine tissue or DCIS organoids were processed and paraffin embedded by commercial laboratories (AML Laboratories, Inc, Rosedale, Md. or Bi-Biomics, Nampa, Id.). Formalin fixed paraffin embedded (FFPE) tissue sections (5 μm or 1 μm thickness) mounted on positively charged glass slides were baked at 56° C. for 20 min., deparaffinized in xylene and rehydrated in a series of graded alcohols (100%, 95%, and 70%) with a final rinse in wash buffer (Dako, Carpinteria, Calif., USA). Antigen retrieval, when necessary, was performed with proteinase K or heat induced epitope retrieval. Immunostaining was performed on a Dako Autostainer with an Envision+HRP staining kit (Dako) per manufacturer's instructions. Stained tissue sections were counterstained with Hematoxylin (Dako), rinsed in distilled water and developed in Scott's Tap Water Substitute solution. Cover slips were applied using aqueous mounting medium (Paramount; Dako). Images were captured with an Olympus BX51 microscope using 4×, 10×, 20×, or 100× objectives.

CCN(CC)CCCC(C)Nc1ccnc2cc(Cl)ccc12 (stereo not drawn) [chloroquine, N′-(7-chloroquinolin-4-yl)-N,N-diethyl-pentane-1,4-diamine]
explants that did not have any spheroids following chloroquine treatment ([1]; case 09-148, chloroquine phosphate 50 μM): 12 out of 14
spheroids after treatment ([1]; case 09-301, n=3, 20.5±7.8 prior to treatment): no spheroids observed
ex vivo invasion of autologous stroma ([1]; chloroquine phosphate): suppressed ex vivo invasion of autologous stroma
inhibition of spheroid outgrowth, CQ in combination with tamoxifen ([1]; cultured DCIS cells, in combination with anti-estrogen compound (tamoxifen)): pronounced effect
number of spheroids generated post chloroquine treatment, majority of explants ([1]; two different patient DCIS cases, up to 113 spheroids per duct organoid untreated): zero
apoptosis (elevation of cleaved PARP Asp214) ([2]; as early as 48 hours post treatment): induced apoptosis
autophagy associated signal pathway proteins/endpoints (Atg5, AKT, ERK, mTOR, IRS-1, p38 etc.) by RPMA ([2]; listed as CQ): suppressed
autophagy associated signal pathway proteins/endpoints (Atg5, AKT, ERK, mTOR, IRS-1, p38 etc.) by RPMA ([2]; listed as Chloroquine): markedly inhibited
autophagy associated signal pathway proteins/endpoints (Atg5, AKT, ERK, mTOR, IRS-1, p38 etc.) by RPMA ([2]; listed as chloroquine phosphate): suppressed autophagy associated proteins
spheroid integrity and LysoTracker Red distribution [3]: Dissociation of the spheroid, and diffuse accumulation of LysoTracker Red
histology of organoid cultured in the presence of chloroquine for 6 months ([4]; 6 months): complete absence of cellular outgrowths and degenerated cells within the duct
histology of organoid 2 days post chloroquine treatment ([4]; 2 days): Degeneration of the invading DCIS cells within the organoid
